The target of this experiment is human PDE2A1 (Homo sapiens (Human), UniProt O00408). In words: IMAP FP PDE selectivity panel, human PDE2A1. Format: biochemical. The settings on record: Human PDE2, Lab B; read-out: Human PDE2 Ki (nM) - Lab B. The procedure:
Selectivity for PDE2, as compared to other PDE families, was assessed using the IMAP® technology. Human PDE 10A2 enzyme was prepared from cytosolic fractions of transiently transfected HEK cells. All other PDE's were GST Tag human enzyme expressed in insect cells and were obtained from BPS Bioscience (San Diego, Calif.): PDE1A (Cat#60010), human PDE2A1 (Cat#60020), PDE3A (Cat#60030), PDE4A1A (Cat#60040), PDE5A1 (Cat#60050), PDE6C (Cat#60060), PDE7A (Cat#60070), PDE8A1 (Cat#60080), PDE9A2 (Cat#60090), PDE11A4 (Cat#60110).
Assays for PDE 1 through 11 were performed in parallel at room temperature in 384-well microtiter plates with an incubation volume of 20.2 μL. Solutions of test compounds were prepared in DMSO and serially diluted with DMSO to yield 30 μL of each of ten solutions differing by 3-fold in concentration, at 32 serial dilutions per plate. […] A Labcyte POD 810 (Labcyte, Sunnyvale, Calif.) was used to dispense 200 nL from each well of the titration plate to make eleven copies of the assay plate for each titration, one copy for each PDE enzyme. A solution of each enzyme (dilution from aliquots, sufficient to produce 20% substrate conversion) and a separate solution of FAM-labeled cAMP or FAM-labeled cGMP from Molecular Devices (Sunnyvale, Calif., product # R7506 or cGMP#R7508), at a final concentration of 50 nM were made in the assay buffer (10 mM Tris HCl, pH 7.2, 10 mM MgCl2, 0.05% NaN3 0.01% Tween-20, and 1 mM DTT). Note that the substrate for PDE2 is 50 nM FAM cAMP containing 1000 nM of cGMP. The enzyme and the substrate were then added to the assay plates in two consecutive additions of 10 μL and then shaken to mix. The reaction was allowed to proceed at room temperature for 60 minutes. A binding solution was then made from the kit components, comprised of 80% Solution A, 20% Solution B and binding reagent at a volume of 1/600 the total binding solution. The enzymatic reaction was stopped by addition of 60 μL of the binding solution to each well of the assay plate. The plates were sealed and shaken for 10 seconds. The plates were incubated at room temperature for one hour, then the parallel and perpendicular fluorescence was measured using a Tecan Genios Pro plate reader (Tecan, Switzerland). The apparent inhibition constants for the compounds against all 11 PDE's was determined from the parallel and perpendicular fluorescent readings as described for PDE10 FP assay using the following apparent KM values for each enzyme and substrate combination: PDE1A (FAM cGMP) 70 nM, human PDE2A1 (FAM cAMP) 10,000 nM, PDE3A (FAM cAMP) 50 nM, PDE4A1A (FAM cAMP) 1500 nM, PDE5A1 (FAM cGMP) 400 nM, PDE6C (FAM cGMP) 700 nM, PDE7A (FAM cAMP) 150 nM, PDE8A1 (FAM cAMP) 50 nM, PDE9A2 (FAM cGMP) 60 nM, PDE10A2 (FAM cAMP) 150 nM, PDE11A4 (FAM cAMP) 1000 nM. The intrinsic PDE2 inhibitory activity of a compound which may be used in accordance with the present invention may be determined by these assays.

One may read the Ki as the equilibrium dissociation constant of an inhibitor or competing ligand from its target.

Sequence of human PDE2A1 (O00408 other isoform, or with tags, fused parts or gaps): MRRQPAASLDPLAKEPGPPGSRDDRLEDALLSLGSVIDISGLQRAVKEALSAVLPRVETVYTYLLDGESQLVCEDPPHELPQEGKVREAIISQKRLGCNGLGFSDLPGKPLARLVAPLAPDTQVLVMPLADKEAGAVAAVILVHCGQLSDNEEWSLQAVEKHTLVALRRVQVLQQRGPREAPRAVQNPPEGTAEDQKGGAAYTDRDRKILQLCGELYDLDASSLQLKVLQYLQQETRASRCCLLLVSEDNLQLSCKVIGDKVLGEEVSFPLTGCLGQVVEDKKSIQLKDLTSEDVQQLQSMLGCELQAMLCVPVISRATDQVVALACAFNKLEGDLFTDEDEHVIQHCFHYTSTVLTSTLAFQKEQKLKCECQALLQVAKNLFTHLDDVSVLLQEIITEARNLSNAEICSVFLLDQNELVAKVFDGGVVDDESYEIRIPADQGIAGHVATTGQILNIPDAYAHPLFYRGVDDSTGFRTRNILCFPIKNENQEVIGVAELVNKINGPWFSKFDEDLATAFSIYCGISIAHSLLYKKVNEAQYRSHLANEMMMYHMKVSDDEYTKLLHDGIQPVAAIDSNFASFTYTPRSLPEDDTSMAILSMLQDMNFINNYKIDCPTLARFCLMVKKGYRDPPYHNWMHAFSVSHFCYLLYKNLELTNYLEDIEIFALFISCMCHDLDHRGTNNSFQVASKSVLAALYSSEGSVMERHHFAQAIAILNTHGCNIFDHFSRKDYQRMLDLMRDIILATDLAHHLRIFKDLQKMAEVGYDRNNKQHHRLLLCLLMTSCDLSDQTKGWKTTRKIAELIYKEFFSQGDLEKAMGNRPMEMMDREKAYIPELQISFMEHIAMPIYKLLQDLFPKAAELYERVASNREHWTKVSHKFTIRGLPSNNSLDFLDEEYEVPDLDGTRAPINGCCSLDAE

For the molecule `CC(C)(C)[C@@H](NC(=O)c1cc(=O)[nH]c(-c2ccccc2)n1)c1ccc(C(F)(F)F)cc1F` [Example 545, N-{(1R)-1-[2-fluoro-4-(trifluoromethyl)phenyl]-2,2-dimethylpropyl}-6-oxo-2-phenyl-1,6-dihydropyrimidine-4-carboxamide], the Ki was 1.2 nM.

Regarding `Cc1nc(C(=O)N[C@@H](c2ccc3c(c2)OC(F)(F)O3)C2CC2)cc(=O)[nH]1` [Example 609, N-[(R)-cyclopropyl(2,2-difluoro-1,3-benzodioxol-5-yl)methyl]-2-methyl-6-oxo-1,6-dihydropyrimidine-4-carboxamide], the Ki is 94 nM. With `Cc1nc(C(=O)NC(c2ccc(S(F)(F)(F)(F)F)cc2F)C(C)(C)C)cc(=O)[nH]1` (single isomer, unassigned) [Example 720, (R)- or (S)-N-(1-(2-fluoro-4-(pentafluoro-λ^6-sulfanyl)phenyl)-2,2-dimethylpropyl)-2-methyl-6-oxo-1,6-dihydropyrimidine-4-carboxamide] the figure was 2.6 nM. With `CC(C)(NC(=O)c1cc(=O)[nH]c(-c2ncccn2)n1)c1ccc(C(F)(F)F)cc1Cl` [Example 568, N-{1-[2-chloro-4-(trifluoromethyl)phenyl]-1-methylethyl}-6-oxo-1,6-dihydro-2,2′-bipyrimidine-4-carboxamide] the figure was 96 nM. With `CC1([C@@H](NC(=O)c2cc(=O)[nH]c(-c3ncccn3)n2)c2ccc(C(F)(F)F)c(F)c2)CC1` [Example 583, N-[(R)-[3-fluoro-4-(trifluoromethyl)phenyl](1-methylcyclopropyl)methyl]-6-oxo-1,6-dihydro-2,2′-bipyrimidine-4-carboxamide] the figure was 8 nM; with `Cc1nc(C(=O)NC(C)(C)c2ccc3c(c2)OC(F)(F)O3)cc(=O)[nH]1` [Example 604, N-[1-(2,2-difluoro-1,3-benzodioxol-5-yl)-1-methylethyl]-2-methyl-6-oxo-1,6-dihydropyrimidine-4-carboxamide], 108 nM; with `CC(C)c1ccc(C2(NC(=O)c3cc(=O)[nH]c(-c4ncccn4)n3)CC2)cc1` [Example 576, N-{1-[4-(1-methylethyl)phenyl]cyclopropyl}-6-oxo-1,6-dihydro-2,2′-bipyrimidine-4-carboxamide], 32 nM. `CC(C)(C)[C@@H](NC(=O)c1cc(=O)[nH]c(-c2ncccn2)n1)c1ccc2c(c1)OC(F)(F)O2` [Example 586, N-[(1R)-1-(2,2-difluoro-1,3-benzodioxol-5-yl)-2,2-dimethylpropyl]-6-oxo-1,6-dihydro-2,2′-bipyrimidine-4-carboxamide]: the Ki was determined as 19 nM. Next, `CC1(c2ccc(C(NC(=O)c3cc(=O)[nH]c(-c4ccccc4)n3)C(C)(C)C)cc2F)CC1` (single isomer, unassigned) [Example 714, (S)- or (R)-N-(1-(3-fluoro-4-(1-methylcyclopropyl)phenyl)-2,2-dimethylpropyl)-6-oxo-2-phenyl-1,6-dihydropyrimidine-4-carboxamide]: roughly 1820 nM; `CCc1nc(C(=O)NC(C)(C)c2ccc(C(F)(F)F)cc2)cc(=O)[nH]1` [Example 600, 2-ethyl-N-{1-methyl-1-[4-(trifluoromethyl)phenyl]ethyl}-6-oxo-1,6-dihydropyrimidine-4-carboxamide]: 21 nM; `Cc1nc(C(=O)N[C@@H](c2ccc3c(c2)OC(F)(F)O3)C(C)(C)C)cc(=O)[nH]1` [Example 633, N-[(1R)-1-(2,2-difluoro-1,3-benzodioxol-5-yl)-2,2-dimethylpropyl]-2-methyl-6-oxo-1,6-dihydropyrimidine-4-carboxamide]: 16 nM.

For `Cc1nc(C(=O)NC(C)(C)c2ccc(C(F)(F)F)c(Cl)c2)cc(=O)[nH]1` [Example 641, N-{1-[3-chloro-4-(trifluoromethyl)phenyl]-1-methylethyl}-2-methyl-6-oxo-1,6-dihydropyrimidine-4-carboxamide], the Ki is 32 nM.

Turning to `Cc1nc(C(=O)N[C@@H](c2ccc(OC(F)F)c(F)c2)C(C)C)cc(=O)[nH]1` [Example 624, N-{(1R)-1-[4-(difluoromethoxy)-3-fluorophenyl]-2-methylpropyl}-2-methyl-6-oxo-1,6-dihydropyrimidine-4-carboxamide], the Ki is 17 nM. With `CC1([C@@H](NC(=O)c2cc(=O)[nH]c(-c3ncccn3)n2)c2ccc(S(F)(F)(F)(F)F)cc2)CC1` [Example 564, N-{(R)-(1-methylcyclopropyl)[4-(pentafluoro-λ^6-sulfanyl)phenyl]methyl}-6-oxo-1,6-dihydro-2,2′-bipyrimidine-4-carboxamide] the figure was 6.7 nM. In the case of `CCc1nc(C(=O)N[C@H](C)c2ccc(S(F)(F)(F)(F)F)cc2)cc(=O)[nH]1` [Example 599, 2-ethyl-6-oxo-N-{(1R)-1-[4-(pentafluoro-λ^6-sulfanyl)phenyl]ethyl}-1,6-dihydropyrimidine-4-carboxamide], the Ki worked out at 10 nM. With `CC(NC(=O)c1cc(=O)[nH]c(-c2ccccc2)n1)c1ccc(C(C)(C)C(F)(F)F)cc1` (single isomer, unassigned) [Example 698, (S)- or (R)-6-oxo-2-phenyl-N-(1-(4-(1,1,1-trifluoro-2-methylpropan-2-yl)phenyl)ethyl)-1,6-dihydropyrimidine-4-carboxamide] the figure was greater than 2960 nM. Next, `CCc1nc(C(=O)N[C@](C)(CO)c2ccc(C(F)(F)F)cc2Cl)cc(=O)[nH]1` [Example 639, N-{(1S)-1-[2-chloro-4-(trifluoromethyl)phenyl]-2-hydroxy-1-methylethyl}-2-ethyl-6-oxo-1,6-dihydropyrimidine-4-carboxamide]: 2 nM.

In the case of `CC(C)(C)[C@@H](NC(=O)c1cc(=O)[nH]c(-c2ncccn2)n1)c1ccc(OC(F)(F)F)c(F)c1` [Example 554, N-{(1R)-1-[3-fluoro-4-(trifluoromethoxy)phenyl]-2,2-dimethylpropyl}-6-oxo-1,6-dihydro-2,2′-bipyrimidine-4-carboxamide], the Ki came out at 8.2 nM. In the case of `CC1(c2ccc(C(NC(=O)c3cc(=O)[nH]c(-c4ncccn4)n3)C(C)(C)C)cc2F)CC1` (single isomer, unassigned) [Example 716, (S)- or (R)-N-(1-(3-fluoro-4-(1-methylcyclopropyl)phenyl)-2,2-dimethylpropyl)-6-oxo-1,6-dihydro-[2,2′-bipyrimidine]-4-carboxamide], the inhibition constant (Ki) was greater than 2960 nM. Next, `Cc1nc(C(=O)NC(C)c2ccc(C3(C(F)(F)F)CC3)cc2)cc(=O)[nH]1` (single isomer, unassigned) [Example 686, (S)- or (R)-2-methyl-6-oxo-N-(1-(4-(1-(trifluoromethyl)cyclopropyl)phenyl)-ethyl)-1,6-dihydropyrimidine-4-carboxamide]: greater than 2960 nM; `Cc1nc(C(=O)N[C@@H](c2ccc(C3CC3)cc2)C2(C)CC2)cc(=O)[nH]1` [Example 658, N-[(R)-(4-cyclopropylphenyl)(1-methylcyclopropyl)methyl]-2-methyl-6-oxo-1,6-dihydropyrimidine-4-carboxamide]: 3.8 nM; `Cc1nc(C(=O)NC(c2ccc(S(F)(F)(F)(F)F)cc2F)C(C)(C)C)cc(=O)[nH]1` (single isomer, unassigned) [Example 721, (S)- or (R)-N-(1-(2-fluoro-4-(pentafluoro-λ^6-sulfanyl)phenyl)-2,2-dimethylpropyl)-2-methyl-6-oxo-1,6-dihydropyrimidine-4-carboxamide]: roughly 1220 nM.

Source of the values: patent publication US9815796B2 (Merck Sharp & Dohme Corp., priority 2013, dated 2017).
